According to patent US9999596B2 (priority 2004, dated 2018):
Like-named read-outs stand apart in the source and are kept apart here.

Columns and labels:
[1] = system: human umbilical venular endothelial cells; details: cited from earlier work
[2] = female, Fischer 344, rat, in vivo
[3] = system: A2780/AD (multidrug resistant) human ovarian carcinoma cells; assay: cells; format: cell-based; details: A2780AD, 48 h, read-out: IC50 (nM) A2780/AD
[4] = system: A2780 (sensitive) human ovarian carcinoma cells; assay: cells; format: cell-based; details: A2780, 48 h, read-out: IC50 (nM) A2780
Mat B-III tumors = assay: Pharmacodynamic tumor-growth delay study
Source text: Mat B-III cells were obtained from American Type Culture Collection (Rockville, Md.). The cells were maintained in culture in vitro in RMPI medium supplemented with 10% fetal bovine serum, 100 units/ml penicillin-streptomycin sulfate, 2% sodium bicarbonate and 1% non-essential amino acids.
Female Fischer 344 rats (160-180 g) were purchased from Hilltop Laboratories (Scottdale, Pa.) and allowed to acclimate for one week. The rats were housed, two per cage and tagged to facilitate identification. Mat B-III cells grown in serum-containing medium were washed with phosphate buffer and trypsinized for 5 minutes. The cells were collected and centrifuged for 5 minutes. The cell pellet was resuspended in Dulbecco's phosphate buffer (DPBS) and centrifuged as above. This process was repeated three times. Finally the cell pellet (2×10^6 cells/ml) was resuspended and the cells were injected (0.5 ml=1×10^6 cells) subcutaneously into the back of the rats. The rats were weighed daily and examined for tumor development and distress. The tumor size was measured in two dimensions using calipers and the tumor mass was calculated as described in Equation 4.5.
Once the tumors reached a size of approximately 1 cm^3, (500-1000 mg) the rats were randomized into five experimental groups. […] All treatments were administered s.c. in the vicinity of the tumor. The rats were monitored daily for weight loss, tumor growth, skin lesions, distress or ascites. Body weight loss and lethal toxicity were taken into account when evaluating the toxic effects induced by the drug treatment. […]
Therefore, to adequately compare the various treatments, the rats were divided into two groups of 16 rats each based on the size of the tumors on day 10 following inoculation (small tumor group: size ˜500 mg and large tumor group: size ˜1000 mg). […] The dimensions of the tumors were measured prior to and post administration of the treatments in the case of the hydrogel groups to account for the volume of hydrogel.

in vivo = details: female, Fischer 344, rat

## CC[C@@]1(O)C(=O)OCc2c1cc1n(c2=O)Cc2cc3ccccc3nc2-1 [CPT, Camptothecin]
[1]
  growth of human umbilical venular endothelial cells in vitro: inhibited the growth

## CC[C@@]1(O)C(=O)OCc2c1cc1n(c2=O)Cc2cc3c(CN(C)C)c(O)ccc3nc2-1 [TPT, 9-amino-dimethyl-10-hydroxycamptothecin]
[2]; 10 mg/kg
  MAT (mean absorption time): 10.44 h
[2]; iv, 10 mg/kg
  Alpha: 0.84 h⁻¹
  Cl: 444.59 mL/h
  MRT: 3.92 h
  Vz/F: 3552.68 mL
  kel: 0.14 h⁻¹
[2]; sc
  dose fraction (F) that appeared in the systemic circulation: 92%
[2]; sc, 10 mg/kg
  Vz: 5483.75 mL
  kel: 0.10 h⁻¹
  tmax: 1.56 h
[3]
  IC50: 55.9 ± 2.67 nM
[4]
  IC50: 25.3 ± 1.4 nM
Mat B-III tumors; 5 mg/kg s.c., tumors ~500 mg, 16 days
  effect on tumor size, small tumor group: very effective initially in reducing tumor size
Mat B-III tumors; 5 mg/kg s.c., tumors ~1000 mg
  effect on tumor size, large tumor group: initially effective
Mat B-III tumors; at completion of study
  appearance of resected tumors: highly vascularized and firm
In vivo; iv, 10 mg/kg
  AUC(0-inf): 5910 ng·h/mL
  AUC(0-t): 5790 ng·h/mL
  bioavailability: 100%
  AUC: 5960 ng·h/mL
  Cmax: 4360 ng/mL
  MRT: 2.95 h
In vivo; iv, 10 mg/kg, Alpha-t1/2
  half-life: 0.84 ± 0.07 h
In vivo; iv, 10 mg/kg, Cl
  clearance: 7.55 mL/min
In vivo; iv, 10 mg/kg, Vss
  Vd: 1.32 L
In vivo; iv, 10 mg/kg, Vz
  Vd: 3.55 L
In vivo; iv, 10 mg/kg, t1/2
  half-life: 6.16 ± 0.56 h
In vivo; sc
  bioavailability: 98.8%
In vivo; sc, 10 mg/kg
  AUC(0-inf): 5380 ng·h/mL
  AUC(0-t): 4470 ng·h/mL
  bioavailability: 91.8%
  AUC: 5800 ± 894 ng·h/mL
  Cmax: 468 ± 177 ng/mL
  MRT: 13.4 h
In vivo; sc, 10 mg/kg, Ka-t1/2
  half-life: 0.32 ± 0.05 h
In vivo; sc, 10 mg/kg, Vss/F
  Vd/F: 6.07 L
In vivo; sc, 10 mg/kg, Vz/F
  Vd/F: 5.97 L
In vivo; sc, 10 mg/kg, t1/2
  half-life: 6.42 ± 1.99 h
In vivo; sc, 10 mg/kg, tmax
  tmax: 2.67 h
[1]
  growth of human umbilical venular endothelial cells in vitro: inhibited the growth
